Consider 1 compound from patent publication US5728686A, “Alkylxanthine phosphonates and alkylxanthine phosphine oxides and their use as pharmaceuticals” (Hoechst Aktiengesellschaft, priority 1996, dated 1998).

Test [1] concerns Endotoxin (LPS) from Salmonella abortus equi. The experiment in a line: effect on endotoxin fatality (LPS-induced septic shock). The class given is in vivo, female NMRI mice. Particulars: 25 mg/kg i.p. at the same time as LPS 60 mg/kg i.p.; 72 hours; vs placebo control. The protocol: 2. Test for effect on endotoxin fatality
Individual injections of lipopolysaccharide (LPS), from gram-negative bacteria, lead via a series of various symptoms to septic shock, which usually turns out to be fatal. Endotoxin (LPS) from Salmonella abortus equi in a dose of 60 mg/kg i.p. leads to shock and to death with at most 72 h p.a. (the dose of 60 mg/kg corresponds to approximately 1.20 mg of LPS/animal).
The experimental animals used are female NMRI mice from the Hoechst AG/Hattersheim animal breeding unit having a body weight of 22 to 24 g.
The test substances administered intraperitoneally (i.p.) in an administration volume of 10 ml/kg at the same time as the LPS. The number of surviving animals after 72 hours' LPS administration is indicated in comparison to a placebo control. The number of tested animals per group is 5; dose 25 mg/kg.

For test [2], the system named is isolated guinea pig lung strips, Platelet activating factor (PAF). Description: antagonist of PAF-induced contraction of isolated guinea pig lung strips. The class given is cell-based. Particulars: Cavia porcellus, read-out: Anticontractile action (lung), PAF: concentration range corresponding to the IC50 value. Summed up:
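Guinea pig lung strips, 3 mm wide, held at 4 g preload in modified Krebs-Henseleit at 37° C, gassed 95% O2/5% CO2, contracted by PAF or LTD4. Compound given cumulatively at 1, 3, 6 and 10 μg/ml; value is the concentration in μg/ml giving IC50-level effect.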

Test [3] has as its system isolated guinea pig trachea, agonist calcium ionophore A23187. Description: antagonist of calcium ionophore A23187-induced contraction of isolated guinea pig trachea. The test is classed as cell-based. Particulars: Cavia porcellus, 37° C., read-out: Anticontractile action (trachea), Ca ionophore: concentration range for dilatation corresponding to ED50 range. The source says: (§1) 3. Activity as antagonist of the contraction of isolated guinea pig trachea
(§2) The compounds of the formula I are used as antagonists of the contraction of isolated guinea pig trachea. The agonists employed were PGF2α (Upjohn, Germany), calcium ionophore A23187 (Calbiochem, Bad Soden, Germany), and substance P (American Peptide Comp., USA):
b) Calcium ionophore A23187 (Calbiochem, Bad Soden) acts by increased uptake of calcium ions, and an activation of all calcium-dependent signal cascades in the cell. Lipoxygenase inhibitors, in particular, and generally antiinflammatory substances show effects in this model.
(§3) Preparation of the organ sections and experimental procedure:
(§4) The guinea pig is sacrificed by means of terminal laughing gas anaesthesia. The trachea is exposed along its entire length and cut into 15 individual cartilage rings. 5 rings in each case are tied together to give a chain and fixed in the organ bath under a preload of 3 g. After an equilibration time of 45 minutes, a contraction is produced using the agonist. The antagonist (test preparation) is added cumulatively on the plateau of the maximum. Evaluation is carried out in % force change relative to the contraction maximum. The experimental procedure is carried out at 37° C.; the physiological nutrient solution used is a modified Krebs-Henseleit solution through which is bubbled 95% by volume of O2, 5% by volume of CO2.
(§5) Experimental animals: albino guinea pigs (Hattersheim Animal Breeding Institute, Kastengrund, Germany), weight: 200 to 300 g, sex male or female.
(§6) Vehicle: double-distilled water, ethanol or isopropanol; administration: into the organ bath number of administration: cumulative, in SP individual doses
(§7) All numerical values are indicated in the unit μg/ml and relate to the concentration range of the tested compound of the formula I according to the invention (see example numbers in Table 1) which is necessary in order to cause a dilatation which corresponds to the ED50 range.

The subject of test [4] is isolated guinea pig trachea, agonist substance P. Description: antagonist of substance P-induced contraction of isolated guinea pig trachea. The class given is cell-based. Particulars: Cavia porcellus, individual doses, 37° C., read-out: Anticontractile action (trachea), SP antagonism: concentration range for dilatation corresponding to ED50 range.
Excerpt: as §1, §2
The antagonism is possible on the one hand due to specific receptor antagonists, and on the other hand also due to inhibition of the subsequent signal pathway. Preparations which directly or indirectly increase the intracellular concentration of cyclic nucleotides in particular show spasmolytic properties here.
as §3, §4, §5, §6, §7

The subject of test [5] is isolated guinea pig trachea, agonist PGF2α. The experiment in a line: antagonist of PGF2α-induced contraction of isolated guinea pig trachea. Particulars: Cavia porcellus, 37° C., read-out: Anticontractile action (trachea), PGF2α: concentration range for dilatation corresponding to ED50 range. The class given is cell-based.
Excerpt: as §1, §2
Inhibition of contractions which are induced by this cyclooxygenase product is only possible by competitive antagonism at the receptor or of the subsequent signal pathway.
as §3, §4, §5, §6, §7

Test [6] relates to muscle group (gastrocnemius, plantaris and soleus) of the immobilized right rear extremity. Description: rat muscle function test: direct electrical stimulation of muscle group after 3 weeks' immobilization. The test is classed as in vivo, male Wistar rats. Particulars: oral, 1x per day for 3 weeks, as a rule 25 mg/kg, ≤-12% classified as active. Put shortly: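 Male Wistar rats (about 300 g) had the right hindlimb immobilized in a plastic cast for 3 weeks while dosed orally once daily, usually 25 mg/kg in carboxymethylcellulose. Under pentobarbital, the gastrocnemius/plantaris/soleus group was stimulated directly: isometric force (0.5N preload, 15 min) as area-under-curve, and isotonic work (body-weight preload, 15 min) in J; results as Δ% immobilized vs contralateral muscle.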

Values after ≈ are worked out from the molar mass of the structure shown.

`CCCn1cnc2c1c(=O)n(CCCCP(=O)(OCC)OCC)c(=O)n2CC` [Example 38, Diethyl [4-(3-ethyl-7-propylxanthin-1-yl)butyl]phosphonate] returned an Inhibition of mortality in test [1] of 60%. In test [2], the IC50 is 1 to 3 µg/mL (≈ 2.41 to 7.24 µM). Also, the EC50 was 10 µg/mL (≈ 24.1 µM) in test [3], 10 to 30 µg/mL (≈ 24.1 to 72.4 µM) in test [4] and > 10 µg/mL in test [5]. For the same compound, the “Force (force under the contraction curve, right/left difference)” value in test [6] (isometric stimulation, control difference approx. 25%) was -10 Δ %. For the same compound, the “Work (performed work, right/left difference)” value in test [6] (isotonic stimulation, control approx. -25%) was -3 Δ %.
